# Numbers after ± are expanded uncertainties.
# Settings: Liquid, Vibrating wire viscometry
smiles,measurement,setting,value
"FC(F)(F)/C=C/Cl [(E)-1-chloro-3,3,3-trifluoroprop-1-ene]",viscosity,"243.14 K, 5000 kPa",0.5536 ± 0.012 mPa·s
same,viscosity,"243.15 K, 200 kPa",0.5325 ± 0.012 mPa·s
same,viscosity,"243.15 K, 1000 kPa",0.542 ± 0.012 mPa·s
same,viscosity,"243.15 K, 10000 kPa",0.5859 ± 0.013 mPa·s
same,viscosity,"243.15 K, 20000 kPa",0.6281 ± 0.014 mPa·s
same,viscosity,"243.15 K, 30000 kPa",0.6899 ± 0.015 mPa·s
same,viscosity,"243.15 K, 40000 kPa",0.7324 ± 0.016 mPa·s
same,viscosity,"253.14 K, 20000 kPa",0.5583 ± 0.013 mPa·s
same,viscosity,"253.15 K, 200 kPa",0.4733 ± 0.011 mPa·s
same,viscosity,"253.15 K, 1000 kPa",0.4782 ± 0.011 mPa·s
same,viscosity,"253.15 K, 5000 kPa",0.4887 ± 0.011 mPa·s
same,viscosity,"253.15 K, 10000 kPa",0.5179 ± 0.012 mPa·s
same,viscosity,"253.15 K, 30000 kPa",0.6008 ± 0.013 mPa·s
same,viscosity,"253.15 K, 40000 kPa",0.6521 ± 0.014 mPa·s
same,viscosity,"263.14 K, 200 kPa",0.4168 ± 0.0097 mPa·s
same,viscosity,"263.15 K, 1000 kPa",0.4194 ± 0.0098 mPa·s
same,viscosity,"263.15 K, 5000 kPa",0.433 ± 0.01 mPa·s
same,viscosity,"263.15 K, 10000 kPa",0.455 ± 0.01 mPa·s
same,viscosity,"263.15 K, 20000 kPa",0.4998 ± 0.011 mPa·s
same,viscosity,"263.15 K, 30000 kPa",0.539 ± 0.012 mPa·s
same,viscosity,"263.16 K, 40000 kPa",0.5767 ± 0.013 mPa·s
same,viscosity,"273.14 K, 30000 kPa",0.4792 ± 0.011 mPa·s
same,viscosity,"273.15 K, 200 kPa",0.3733 ± 0.0089 mPa·s
same,viscosity,"273.15 K, 1000 kPa",0.3741 ± 0.0089 mPa·s
same,viscosity,"273.15 K, 5000 kPa",0.3892 ± 0.0092 mPa·s
same,viscosity,"273.15 K, 10000 kPa",0.4091 ± 0.0096 mPa·s
same,viscosity,"273.15 K, 20000 kPa",0.4448 ± 0.01 mPa·s
same,viscosity,"273.15 K, 40000 kPa",0.5197 ± 0.012 mPa·s
same,viscosity,"283.14 K, 200 kPa",0.3347 ± 0.0082 mPa·s
same,viscosity,"283.14 K, 10000 kPa",0.3688 ± 0.0088 mPa·s
same,viscosity,"283.15 K, 1000 kPa",0.3363 ± 0.0082 mPa·s
same,viscosity,"283.15 K, 5000 kPa",0.351 ± 0.0085 mPa·s
same,viscosity,"283.15 K, 20000 kPa",0.4033 ± 0.0095 mPa·s
same,viscosity,"283.15 K, 30000 kPa",0.4368 ± 0.01 mPa·s
same,viscosity,"283.15 K, 40000 kPa",0.4708 ± 0.011 mPa·s
same,viscosity,"293.14 K, 20000 kPa",0.3656 ± 0.0088 mPa·s
same,viscosity,"293.14 K, 40000 kPa",0.428 ± 0.0099 mPa·s
same,viscosity,"293.15 K, 200 kPa",0.3004 ± 0.0076 mPa·s
same,viscosity,"293.15 K, 1000 kPa",0.3033 ± 0.0076 mPa·s
same,viscosity,"293.15 K, 5000 kPa",0.316 ± 0.0079 mPa·s
same,viscosity,"293.15 K, 10000 kPa",0.3332 ± 0.0082 mPa·s
same,viscosity,"293.15 K, 30000 kPa",0.3971 ± 0.0094 mPa·s
same,viscosity,"303.15 K, 200 kPa",0.2719 ± 0.0071 mPa·s
same,viscosity,"303.15 K, 1000 kPa",0.2743 ± 0.0071 mPa·s
same,viscosity,"303.15 K, 5000 kPa",0.2874 ± 0.0073 mPa·s
same,viscosity,"303.15 K, 10000 kPa",0.3033 ± 0.0076 mPa·s
same,viscosity,"303.15 K, 20000 kPa",0.3337 ± 0.0082 mPa·s
same,viscosity,"303.15 K, 30000 kPa",0.3635 ± 0.0087 mPa·s
same,viscosity,"303.16 K, 40000 kPa",0.393 ± 0.0093 mPa·s
same,viscosity,"313.15 K, 300 kPa",0.2464 ± 0.0066 mPa·s
same,viscosity,"313.15 K, 10000 kPa",0.2767 ± 0.0072 mPa·s
same,viscosity,"313.15 K, 20000 kPa",0.3058 ± 0.0077 mPa·s
same,viscosity,"313.15 K, 30000 kPa",0.3337 ± 0.0082 mPa·s
same,viscosity,"313.15 K, 40000 kPa",0.3611 ± 0.0087 mPa·s
same,viscosity,"313.16 K, 1000 kPa",0.2489 ± 0.0067 mPa·s
same,viscosity,"313.16 K, 5000 kPa",0.2611 ± 0.0069 mPa·s
same,viscosity,"323.14 K, 40000 kPa",0.3345 ± 0.0082 mPa·s
same,viscosity,"323.15 K, 400 kPa",0.2243 ± 0.0062 mPa·s
same,viscosity,"323.15 K, 1000 kPa",0.2267 ± 0.0063 mPa·s
same,viscosity,"323.15 K, 5000 kPa",0.2393 ± 0.0065 mPa·s
same,viscosity,"323.15 K, 10000 kPa",0.254 ± 0.0068 mPa·s
same,viscosity,"323.15 K, 20000 kPa",0.2819 ± 0.0072 mPa·s
same,viscosity,"323.15 K, 30000 kPa",0.3084 ± 0.0077 mPa·s
same,viscosity,"333.15 K, 500 kPa",0.2047 ± 0.0059 mPa·s
same,viscosity,"333.15 K, 1000 kPa",0.2069 ± 0.006 mPa·s
same,viscosity,"333.15 K, 5000 kPa",0.2192 ± 0.0062 mPa·s
same,viscosity,"333.15 K, 10000 kPa",0.2344 ± 0.0064 mPa·s
same,viscosity,"333.15 K, 20000 kPa",0.262 ± 0.0069 mPa·s
same,viscosity,"333.15 K, 30000 kPa",0.2888 ± 0.0074 mPa·s
same,viscosity,"333.15 K, 40000 kPa",0.3147 ± 0.0078 mPa·s
same,viscosity,"343.14 K, 30000 kPa",0.2702 ± 0.007 mPa·s
same,viscosity,"343.14 K, 40000 kPa",0.2946 ± 0.0075 mPa·s
same,viscosity,"343.15 K, 600 kPa",0.1887 ± 0.0057 mPa·s
same,viscosity,"343.15 K, 1000 kPa",0.1903 ± 0.0057 mPa·s
same,viscosity,"343.15 K, 5000 kPa",0.2029 ± 0.0059 mPa·s
same,viscosity,"343.15 K, 10000 kPa",0.2179 ± 0.0061 mPa·s
same,viscosity,"343.15 K, 20000 kPa",0.245 ± 0.0066 mPa·s
same,viscosity,"353.14 K, 10000 kPa",0.1999 ± 0.0058 mPa·s
same,viscosity,"353.14 K, 30000 kPa",0.2503 ± 0.0067 mPa·s
same,viscosity,"353.15 K, 5000 kPa",0.1846 ± 0.0056 mPa·s
same,viscosity,"353.15 K, 20000 kPa",0.2277 ± 0.0063 mPa·s
same,viscosity,"353.15 K, 40000 kPa",0.2733 ± 0.0071 mPa·s
same,viscosity,"363.15 K, 5010 kPa",0.1701 ± 0.0054 mPa·s
same,viscosity,"363.15 K, 10000 kPa",0.1845 ± 0.0056 mPa·s
same,viscosity,"363.15 K, 20000 kPa",0.2107 ± 0.006 mPa·s
same,viscosity,"363.15 K, 40000 kPa",0.257 ± 0.0068 mPa·s
same,viscosity,"363.16 K, 30000 kPa",0.2345 ± 0.0064 mPa·s
same,viscosity,"373.14 K, 40000 kPa",0.2449 ± 0.0066 mPa·s
same,viscosity,"373.15 K, 5000 kPa",0.1581 ± 0.0052 mPa·s
same,viscosity,"373.15 K, 10000 kPa",0.1734 ± 0.0054 mPa·s
same,viscosity,"373.15 K, 20000 kPa",0.1996 ± 0.0058 mPa·s
same,viscosity,"373.15 K, 30000 kPa",0.2229 ± 0.0062 mPa·s

# Source: the NIST ThermoML archive (doi:10.1016/j.jct.2018.04.001)
